Measurements as given in patent US9096615B2, “Bridged bicyclic amino thiazine dioxide compounds as inhibitors of beta-secretase and methods of use thereof” (AMGEN INC., priority 2013, dated 2015).

Tests used:
Cathepsin D (Cat D) = target: T1, Cathepsin D (Cat D) (Homo sapiens, UniProt P07339); test: In vitro enzymatic Cathepsin D (Cat D) FRET assay; type: biochemical; conditions: average IC50; first procedure; read-out: CatD IC50
T1 construct: made in house; host or cells: CHO cells
Outline: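 Fluorescence (500 nm excitation, 580 nm emission) was measured after Tris quench of a 1 h cleavage of 20 nM quenched peptide substrate. Before that, 9 nM CHO-expressed human Cat D sat with compound for 1 h at pH 3.5 (0.05 M citrate, 5 mM CHAPS, 10% DMSO final).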

BACE1 = BACE1 (Homo sapiens, UniProt P56817); test: In vitro enzymatic BACE FRET assay; type: biochemical; conditions: average IC50; read-out: BACE1 Enzyme assay IC50
Outline: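 Fluorescence (excitation 488 nm, […]) from cleavage of quenched peptide substrate (50 nM), reaction run 1 h after 1 h enzyme–inhibitor pre-incubation, then neutralised with Tris. Conditions: 0.2 nM enzyme, pH 4.2 acetate 0.05 M, 10% DMSO final, 100 uM genapol.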

[1] = tested on: Aβ40 in conditioned medium of cells stably expressing Amyloid Precursor Protein (APP); test: In vitro BACE cell-based assay (HEK cell assay, Aβ40 sandwich ELISA); conditions: Homo sapiens, HEK293; average IC50; read-out: BACE1 cell assay IC50
Outline: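 IC50 was derived from percent-of-control Aβ40 against concentration, with Aβ40 quantified by time-resolved fluorescence ELISA (pAb40/6E10-biotin, 4 °C incubations). Supernatants were sampled after 24 h of compound exposure (10 points, starting 100 or 10 μM, 0.1% DMSO) of cells stably expressing APP.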

human Bace2 protein = target: T2, human Bace2 protein (Homo sapiens, UniProt Q9Y5Z0); test: In vitro enzymatic BACE2 FRET assay; type: biochemical; conditions: average IC50; read-out: BACE2 Enzyme assay IC50
T2 construct: V5 (C); 6-His (C)
T2 sequence (Q9Y5Z0 63-518): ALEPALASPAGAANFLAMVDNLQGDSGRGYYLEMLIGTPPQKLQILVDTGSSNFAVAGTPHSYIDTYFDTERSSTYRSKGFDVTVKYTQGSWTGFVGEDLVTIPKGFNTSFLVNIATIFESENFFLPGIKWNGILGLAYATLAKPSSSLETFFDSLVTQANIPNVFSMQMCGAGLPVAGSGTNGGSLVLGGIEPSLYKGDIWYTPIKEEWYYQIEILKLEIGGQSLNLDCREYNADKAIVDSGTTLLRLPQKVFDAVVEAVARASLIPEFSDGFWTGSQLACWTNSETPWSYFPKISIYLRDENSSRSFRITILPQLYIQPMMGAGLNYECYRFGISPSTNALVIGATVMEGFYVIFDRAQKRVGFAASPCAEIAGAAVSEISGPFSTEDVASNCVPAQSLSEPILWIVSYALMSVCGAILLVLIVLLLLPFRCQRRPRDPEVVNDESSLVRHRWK
Experimental: In Vitro Enzymatic BACE2 FRET (Fluorescence Resonance Energy Transfer) Assay
Enzyme Assay Data in the Table 3
The assay buffer used in this screen is 0.05 M acetate, pH 4.2, 10% DMSO final, 100 uM genapol (which is a nonionic detergent, below its Critical Micelle Concentration). The Beta Secretase2 enzyme (human Bace2 protein with C-terminal V5 and 6-His tag; 0.2 nM) is pre-incubated for one hour with inhibitors, typically in about 1 uL of DMSO according to a serial dilution, are added thereto. This assay is effectively started by the addition of FRET substrate (50 nM) and the combination is incubated for one hour. Final assay concentration of about 0.64 nM. The FRET assay is terminated with by addition of Tris buffer, which raises the pH to neutrality, and the fluorescence is determined. The FRET substrate is a peptide with commercially available fluorophore and quencher, on opposite sides of the BACE cleavage site. Proteolytic cleavage of the FRET substrate releases quenching of fluorescence (excitation 488 nm and […]).

T1 sequence (P07339 65-412, species assumed): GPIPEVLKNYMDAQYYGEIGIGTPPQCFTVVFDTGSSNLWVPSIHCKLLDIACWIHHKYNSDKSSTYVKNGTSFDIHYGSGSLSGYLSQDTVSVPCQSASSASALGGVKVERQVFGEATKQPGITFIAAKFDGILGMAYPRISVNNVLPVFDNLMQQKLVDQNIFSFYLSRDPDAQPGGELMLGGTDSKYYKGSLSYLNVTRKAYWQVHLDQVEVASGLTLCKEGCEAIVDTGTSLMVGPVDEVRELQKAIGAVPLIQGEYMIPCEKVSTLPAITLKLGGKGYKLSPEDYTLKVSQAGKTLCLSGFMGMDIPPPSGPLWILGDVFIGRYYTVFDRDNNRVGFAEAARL
Sequence of BACE1 (P56817 46-501, species assumed): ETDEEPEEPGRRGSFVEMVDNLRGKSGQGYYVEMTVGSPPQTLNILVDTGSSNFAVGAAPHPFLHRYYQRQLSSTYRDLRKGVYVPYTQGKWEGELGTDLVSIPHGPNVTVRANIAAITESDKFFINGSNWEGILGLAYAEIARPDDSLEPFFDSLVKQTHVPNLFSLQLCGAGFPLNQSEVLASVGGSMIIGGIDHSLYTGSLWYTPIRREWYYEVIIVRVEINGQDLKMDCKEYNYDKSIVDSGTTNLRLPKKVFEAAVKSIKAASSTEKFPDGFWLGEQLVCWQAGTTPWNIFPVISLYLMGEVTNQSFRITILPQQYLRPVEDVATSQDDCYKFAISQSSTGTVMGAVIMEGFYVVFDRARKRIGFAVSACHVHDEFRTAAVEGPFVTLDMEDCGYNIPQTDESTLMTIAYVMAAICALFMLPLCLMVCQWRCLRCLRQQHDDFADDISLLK

SMILES | IC50 (Cathepsin D (Cat D)) [µM] | IC50 (BACE1) [µM] | IC50 [1] [µM] | IC50 (human Bace2 protein) [µM]
CC(C)(C)C#CCOc1cnc(C(=O)Nc2ccc(F)c([C@@]3(C)N=C(N)C4(CF)CCC3S4(=O)=O)c2)cn1 (stereo in doubt) [Example 38, N-(3-((1S,2R,5R)-4-Amino-5-(fluoromethyl)-2-methyl-8,8-dioxido-8-thia-3-azabicyclo[3.2.1]oct-3-en-2-yl)-4-fluorophenyl)-5-((4,4-dimethylpent-2-yn-1-yl)oxy)pyrazine-2-carboxamide] | 437 | 0.004 | 0.031 | 0.011
C#CC(C)(C)Oc1cnc(C(=O)Nc2ccc(F)c([C@@]3(C)N=C(N)[C@@]4(CF)CC[C@@H]3S4(=O)=O)c2)cn1 [Example 44, N-(3-((1S,2R,5R)-4-amino-5-(fluoromethyl)-2-methyl-8,8-dioxido-8-thia-3-azabicyclo[3.2.1]oct-3-en-2-yl)-4-fluorophenyl)-5-((1,1-dimethyl-2-propyn-1-yl)oxy)-2-pyrazinecarboxamide] | > 400 | 0.034 | 0.153 | 0.283
C[C@]1(c2cc(Nc3nccc4nc(C(F)(F)F)cnc34)ccc2F)N=C(N)[C@@]2(CF)CC[C@@H]1S2(=O)=O [Example 55, N-(3-((1S,2R,5R)-4-amino-5-(fluoromethyl)-2-methyl-8,8-dioxido-8-thia-3-azabicyclo[3.2.1]oct-3-en-2-yl)-4-fluorophenyl)-2-(trifluoromethyl)pyrido[3,4-b]pyrazin-5-amine] | > 133 | 0.018 | 0.351 | 0.024
CC#C[C@H](C)Oc1cnc(C(=O)Nc2ccc(F)c([C@@]3(C)N=C(N)[C@@]4(C)CC[C@@H]3S4(=O)=O)c2)cn1 [Example 71, N-(3-((1S,2R,5R)-4-amino-2,5-dimethyl-8,8-dioxido-8-thia-3-azabicyclo[3.2.1]oct-3-en-2-yl)-4-fluorophenyl)-5-(((1S)-1-methyl-2-butyn-1-yl)oxy)-2-pyrazinecarboxamide] | > 400 | 0.003 | 0.0001 | 0.008
CC#CCOc1cnc2c(Nc3ccc(F)c([C@@]4(C)N=C(N)[C@]5(C)CC[C@H]4S5(=O)=O)c3)nccc2n1 [Example 63, N-(3-((1R,2R,5S)-4-amino-2,5-dimethyl-8,8-dioxido-8-thia-3-azabicyclo[3.2.1]oct-3-en-2-yl)-4-fluorophenyl)-2-(2-butyn-1-yloxy)pyrido[3,4-b]pyrazin-5-amine] | 1180 | 0.003 | 0.002 | 0.321
COCCOc1cnc2c(Nc3ccc(F)c([C@@]4(C)N=C(N)[C@@]5(C)CC[C@@H]4S5(=O)=O)c3)nccc2n1 [Example 145, N-(3-((1S,2R,5R)-4-amino-2,5-dimethyl-8,8-dioxido-8-thia-3-azabicyclo[3.2.1]oct-3-en-2-yl)-4-fluorophenyl)-2-(2-methoxyethoxy)pyrido[3,4-b]pyrazin-5-amine] | 1980 | 0.003 | 0.002 | 0.065

Second part, the compound after the results:

IC50 (Cathepsin D (Cat D)) [µM] | IC50 (BACE1) [µM] | IC50 [1] [µM] | IC50 (human Bace2 protein) [µM] | SMILES
> 400 | 0.014 | 0.007 | 0.05 | CC#C[C@@H](C)Oc1cnc(C(=O)Nc2ccc(F)c([C@@]3(C)N=C(N)[C@@]4(C)CC[C@@H]3S4(=O)=O)c2)cn1 [Example 70, N-(3-((1S,2R,5R)-4-amino-2,5-dimethyl-8,8-dioxido-8-thia-3-azabicyclo[3.2.1]oct-3-en-2-yl)-4-fluorophenyl)-5-(((1R)-1-methyl-2-butyn-1-yl)oxy)-2-pyrazinecarboxamide]
174 | 0.007 | 0.036 | 0.002 | C[C@]1(c2cc(Nc3ncnc4cc(Br)cnc34)ccc2F)N=C(N)[C@@]2(CF)CC[C@@H]1S2(=O)=O [Example 47, N-(3-((1S,2R,5R)-4-amino-5-(fluoromethyl)-2-methyl-8,8-dioxido-8-thia-3-azabicyclo[3.2.1]oct-3-en-2-yl)-4-fluorophenyl)-7-bromopyrido[3,2-d]pyrimidin-4-amine]
1550 | 0.016 | 0.053 | 0.006 | Cc1cc(Cl)cnc1C(=O)Nc1ccc(F)c([C@@]2(C)N=C(N)[C@]3(CF)CC[C@H]2S3(=O)=O)c1 [Example 89, N-(3-((1R,2R,5S)-4-amino-5-(fluoromethyl)-2-methyl-8,8-dioxido-8-thia-3-azabicyclo[3.2.1]oct-3-en-2-yl)-4-fluorophenyl)-5-chloro-3-methyl-2-pyridinecarboxamide]
348 | 0.061 | 0.044 | 7 | CC#CCOc1ccc(C(=O)Nc2ccc(F)c([C@@]3(C)N=C(N)[C@]4(C)CC[C@H]3S4(=O)=O)c2)c(F)c1 [Example 129, N-(3-((1R,2R,5S)-4-amino-2,5-dimethyl-8,8-dioxido-8-thia-3-azabicyclo[3.2.1]oct-3-en-2-yl)-4-fluorophenyl)-4-(2-butyn-1-yloxy)-2-fluorobenzamide]
1100 | 0.001 | 0.0005 | 0.082 | CC#CCOc1cnc(C(=O)Nc2ccc(F)c([C@@]3(C)N=C(N)[C@]4(C)CC[C@H]3S4(=O)=O)c2)cn1 [Example 83, N-(3-((1R,2R,5S)-4-amino-2,5-dimethyl-8,8-dioxido-8-thia-3-azabicyclo[3.2.1]oct-3-en-2-yl)-4-fluorophenyl)-5-(2-butyn-1-yloxy)-2-pyrazinecarboxamide]
1000 | 0.001 | 0.005 | 0.009 | C#CCOc1cnc2c(Nc3ccc(F)c([C@@]4(C)N=C(N)[C@@]5(CF)CC[C@@H]4S5(=O)=O)c3)nccc2n1 [Example 46, N-(3-((1S,2R,5R)-4-amino-5-(fluoromethyl)-2-methyl-8,8-dioxido-8-thia-3-azabicyclo[3.2.1]oct-3-en-2-yl)-4-fluorophenyl)-2-(2-propyn-1-yloxy)pyrido[3,4-b]pyrazin-5-amine]
1450 | 0.013 | 0.011 | 0.024 | C[C@]12CC[C@H]([C@@](C)(c3cc(Nc4nccc5cc(C#N)cnc45)ccc3F)N=C1N)S2(=O)=O [Example 85, 8-((3-((1R,2R,5S)-4-amino-2,5-dimethyl-8,8-dioxido-8-thia-3-azabicyclo[3.2.1]oct-3-en-2-yl)-4-fluorophenyl)amino)-1,7-naphthyridine-3-carbonitrile]
755 | 0.002 | 0.09 | 0.002 | C[C@]1(c2cc(Nc3ncc(F)c4cc(Cl)cnc34)ccc2F)N=C(N)[C@@]2(CF)CC[C@@H]1S2(=O)=O [Example 54, N-(3-((1S,2R,5R)-4-amino-5-(fluoromethyl)-2-methyl-8,8-dioxido-8-thia-3-azabicyclo[3.2.1]oct-3-en-2-yl)-4-fluorophenyl)-3-chloro-5-fluoro-1,7-naphthyridin-8-amine]
342 | 0.001 | 0.046 | 0.002 | C[C@]1(c2cc(Nc3nccc4cc(Cl)cnc34)ccc2F)N=C(N)[C@@]2(CF)CC[C@@H]1S2(=O)=O [Example 58, N-(3-((1S,2R,5R)-4-amino-5-(fluoromethyl)-2-methyl-8,8-dioxido-8-thia-3-azabicyclo[3.2.1]oct-3-en-2-yl)-4-fluorophenyl)-3-chloro-1,7-naphthyridin-8-amine]
